According to ChEMBL document CHEMBL1201862, “PubChem BioAssay data set” (2004):
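Each compound was tested at five concentrations against cells in 96-well plates for 48 hours. GI50 marks 50% less growth.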 Activity calls are given as the source filed them. Cut-off read from the data, not from the text of the source: active = GI50 up to about 1.1 µM and inactive = higher.

Tests used:
Assay in all cases: DTP human tumour cell line panel, 48 h
SF-268 = test system: SF-268
HCT-116 = test system: HCT-116
SK-MEL-28 = test system: SK-MEL-28
HL-60 = test system: HL-60
CAKI-1 = test system: CAKI-1
KM12 = test system: KM12
LOX IMVI = test system: LOX IMVI
HCC 2998 = test system: HCC 2998
XF498 = test system: XF498
K562 = test system: K562
U-251 = test system: U-251
A498 = test system: A498
Malme-3M = test system: Malme-3M
SK-MEL-2 = test system: SK-MEL-2
OVCAR-3 = test system: OVCAR-3
MOLT-4 = test system: MOLT-4
UACC-62 = test system: UACC-62
UO-31 = test system: UO-31
NCI-H522 = test system: NCI-H522
SNB-78 = test system: SNB-78
HCT-15 = test system: HCT-15
SK-MEL-5 = test system: SK-MEL-5
HOP-92 = test system: HOP-92
OVCAR-8 = test system: OVCAR-8
SNB-19 = test system: SNB-19
IGROV-1 = test system: IGROV-1
SF-539 = test system: SF-539
RPMI-8226 = test system: RPMI-8226
UACC-257 = test system: UACC-257
NCI/ADR-RES = test system: NCI/ADR-RES
COLO 205 = test system: COLO 205
EKVX = test system: EKVX
HT-29 = test system: HT-29
OVCAR-5 = test system: OVCAR-5
SW-620 = test system: SW-620
DMS-273 = test system: DMS-273
DMS-114 = test system: DMS-114
A549 = test system: A549
DLD-1 = test system: DLD-1
CCRF-CEM = test system: CCRF-CEM
SN12C = test system: SN12C
NCI-H23 = test system: NCI-H23
NCI-H226 = test system: NCI-H226
RXF 393 = test system: RXF 393
KM-20L2 = test system: KM-20L2
M19-MEL = test system: M19-MEL
HOP-18 = test system: HOP-18
OVCAR-4 = test system: OVCAR-4
NCI-H460 = test system: NCI-H460
SNB-75 = test system: SNB-75
SF-295 = test system: SF-295
HOP-62 = test system: HOP-62
SK-OV-3 = test system: SK-OV-3
MCF7 = test system: MCF7
TK-10 = test system: TK-10
786-0 = test system: 786-0
M14 = test system: M14
LXFL 529 = test system: LXFL 529
ACHN = test system: ACHN
SR = test system: SR

Measured: GI50

C[N+](C)(C)CCOC(=O)/C=C/c1c[nH]cn1
inactive: SF-268 > 500 µM | HCT-116 > 500 µM | SK-MEL-28 > 500 µM | HL-60 > 500 µM | CAKI-1 > 500 µM | KM12 > 500 µM | LOX IMVI > 500 µM | HCC 2998 > 500 µM | XF498 > 500 µM | K562 > 500 µM | U-251 > 500 µM | A498 > 500 µM | Malme-3M > 500 µM | SK-MEL-2 > 500 µM | OVCAR-3 > 500 µM | MOLT-4 > 316 µM | UACC-62 > 500 µM | UO-31 > 500 µM | NCI-H522 > 500 µM | SNB-78 > 500 µM | SK-MEL-5 > 500 µM | HOP-92 492 µM | OVCAR-8 > 500 µM | SNB-19 > 500 µM | IGROV-1 > 500 µM | SF-539 > 500 µM | RPMI-8226 > 500 µM | UACC-257 > 500 µM | NCI/ADR-RES > 500 µM | COLO 205 > 500 µM | EKVX > 500 µM | HT-29 > 500 µM | OVCAR-5 > 356 µM | SW-620 > 500 µM | DMS-273 > 500 µM | DMS-114 > 500 µM | A549 > 500 µM | DLD-1 > 500 µM | CCRF-CEM > 500 µM | SN12C > 500 µM | NCI-H23 > 500 µM | NCI-H226 > 500 µM | RXF 393 > 500 µM | KM-20L2 > 500 µM | M19-MEL > 500 µM | HOP-18 > 500 µM | OVCAR-4 > 500 µM | NCI-H460 > 500 µM | SNB-75 > 500 µM | SF-295 > 500 µM | HOP-62 > 500 µM | SK-OV-3 > 500 µM | MCF7 > 500 µM
> 500 µM: HCT-15

COc1ccc2c(c1)[n+]([O-])c(-c1ccc(OC)c(OC)c1)c(N)[n+]2[O-]
37.2 µM: HCT-15
inactive: SF-268 35.2 µM | SK-MEL-28 25.4 µM | HL-60 53.2 µM | TK-10 > 100 µM | CAKI-1 32.1 µM | KM12 98.2 µM | LOX IMVI > 100 µM | HCC 2998 > 100 µM | XF498 > 100 µM | K562 72.1 µM | U-251 68.7 µM | A498 > 100 µM | Malme-3M 46.3 µM | SK-MEL-2 92.3 µM | OVCAR-3 > 100 µM | MOLT-4 78.5 µM | UACC-62 31.1 µM | UO-31 > 100 µM | NCI-H522 15.9 µM | SNB-78 95.3 µM | SK-MEL-5 32.7 µM | OVCAR-8 > 100 µM | SNB-19 83.2 µM | IGROV-1 > 100 µM | SF-539 29.4 µM | RPMI-8226 > 100 µM | UACC-257 31 µM | COLO 205 18.7 µM | EKVX > 100 µM | HT-29 52.1 µM | OVCAR-5 > 100 µM | SW-620 > 100 µM | DMS-273 61.5 µM | DMS-114 34.1 µM | A549 > 100 µM | DLD-1 78.9 µM | CCRF-CEM 84.1 µM | SN12C 68.9 µM | NCI-H23 21.2 µM | 786-0 > 100 µM | M14 57.4 µM | NCI-H226 > 100 µM | LXFL 529 49.8 µM | KM-20L2 42 µM | M19-MEL 54.6 µM | HOP-18 43.7 µM | ACHN 51.3 µM | OVCAR-4 > 100 µM | NCI-H460 49.4 µM | SNB-75 > 100 µM | SF-295 67.1 µM | HOP-62 > 100 µM | SK-OV-3 > 100 µM

Nc1nc2sc3ccccc3c(=O)n2n1
> 100 µM: HCT-15
inactive: SF-268 > 100 µM | HCT-116 > 100 µM | SK-MEL-28 > 100 µM | HL-60 > 100 µM | TK-10 > 100 µM | CAKI-1 > 100 µM | KM12 > 100 µM | LOX IMVI > 100 µM | HCC 2998 > 100 µM | XF498 > 100 µM | K562 > 100 µM | U-251 > 100 µM | Malme-3M > 100 µM | SK-MEL-2 > 100 µM | OVCAR-3 > 100 µM | MOLT-4 > 100 µM | UACC-62 > 100 µM | UO-31 > 100 µM | SNB-78 > 100 µM | SK-MEL-5 > 100 µM | HOP-92 > 100 µM | OVCAR-8 > 100 µM | SNB-19 > 100 µM | IGROV-1 > 100 µM | SF-539 > 100 µM | RPMI-8226 > 100 µM | UACC-257 > 100 µM | COLO 205 > 100 µM | EKVX 64.7 µM | HT-29 > 100 µM | OVCAR-5 > 100 µM | SW-620 > 100 µM | DMS-273 > 100 µM | DMS-114 > 100 µM | A549 > 100 µM | DLD-1 > 100 µM | CCRF-CEM > 100 µM | SN12C > 100 µM | NCI-H23 > 100 µM | 786-0 > 100 µM | M14 > 100 µM | NCI-H226 > 100 µM | RXF 393 > 100 µM | LXFL 529 > 100 µM | KM-20L2 > 100 µM | HOP-18 > 100 µM | ACHN > 100 µM | OVCAR-4 > 100 µM | NCI-H460 > 100 µM | SNB-75 > 100 µM | SF-295 > 100 µM | HOP-62 > 100 µM | SR > 100 µM | SK-OV-3 > 100 µM
